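Exposure lasted 48 hours, with cells grown in 96-well plates and compounds tested at five concentrations. GI50 = concentration required for 50% inhibition of growth.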 Activity calls are given as the source filed them. Rule as the data show it: active = GI50 up to about 1.1 µM and inactive = higher.
How the values were obtained:
Assay in all cases: inhibition of tumour cell growth, NCI panel, 48 h
[1] = tested on: HOP-62
[2] = tested on: OVCAR-4
[3] = tested on: SK-MEL-28
[4] = tested on: SK-MEL-5
[5] = tested on: HOP-92
[6] = tested on: RPMI-8226
[7] = tested on: RXF 393
[8] = tested on: PC-3
[9] = tested on: ACHN
[10] = tested on: IGROV-1
[11] = tested on: MCF7
[12] = tested on: 786-0
[13] = tested on: CAKI-1
[14] = tested on: HL-60
[15] = tested on: NCI-H23
[16] = tested on: MDA-MB-435
[17] = tested on: UACC-257
[18] = tested on: OVCAR-3
[19] = tested on: SF-268

Compound | GI50 [1] | GI50 [2] | GI50 [3] | GI50 [4] | GI50 [5] | GI50 [6] | GI50 [7] | GI50 [8] | GI50 [9] | GI50 [10] | GI50 [11] | GI50 [12] | GI50 [13] | GI50 [14] | GI50 [15] | GI50 [16] | GI50 [17] | GI50 [18] | GI50 [19]
O=C1Nc2ccccc2/C1=N/NS(=O)(=O)c1ccc(C(=O)O)cc1 | > 100 µM (inactive) | > 100 µM (inactive) | > 100 µM (inactive) | > 100 µM (inactive) | > 100 µM (inactive) | > 100 µM (inactive) | > 100 µM (inactive) | > 100 µM (inactive) | > 100 µM (inactive) | > 100 µM (inactive) | > 100 µM (inactive) | > 100 µM (inactive) | > 100 µM (inactive) | > 100 µM (inactive) | > 100 µM (inactive) | > 100 µM (inactive) | > 100 µM (inactive) | > 100 µM (inactive) | > 100 µM (inactive)
CC(C)C1=C(O)C(=O)C2=C(C1=O)C(O)CC1C(C)(C)CCCC21C (stereo not drawn) | 7.35 µM (inactive) | 14.6 µM (inactive) | 13.3 µM (inactive) | 2.43 µM (inactive) | 3.61 µM (inactive) | 4.65 µM (inactive) | 2.14 µM (inactive) | 10.2 µM (inactive) | 3.85 µM (inactive) | 15.8 µM (inactive) | 5.87 µM (inactive) | 9.2 µM (inactive) | 8.05 µM (inactive) | 14.9 µM (inactive) | 1.79 µM (inactive) | 3.4 µM (inactive) | 11.3 µM (inactive) | 11.4 µM (inactive) | 6 µM (inactive)
Cc1ccc(C2=Nc3cc(C)c(Cl)cc3S(=O)(=O)NN2)cc1 | > 100 µM (inactive) | 77.4 µM (inactive) | > 100 µM (inactive) | > 100 µM (inactive) | > 100 µM (inactive) | > 100 µM (inactive) | 72.1 µM (inactive) | > 100 µM (inactive) | 65.5 µM (inactive) | > 100 µM (inactive) | > 100 µM (inactive) | 58.1 µM (inactive) | 27.9 µM (inactive) | 34.4 µM (inactive) | > 100 µM (inactive) | > 100 µM (inactive) | > 100 µM (inactive) | > 100 µM (inactive) | 82.6 µM (inactive)
CCOC(=O)C(NCc1cccc(C(F)(F)F)c1)(NC(=O)CC)C(F)(F)F (stereo not drawn) | > 100 µM (inactive) | > 100 µM (inactive) | > 100 µM (inactive) | > 100 µM (inactive) | 71 µM (inactive) | 26 µM (inactive) | 5.52 µM (inactive) | 95.5 µM (inactive) | > 100 µM (inactive) | 18 µM (inactive) | > 100 µM (inactive) | > 100 µM (inactive) | > 100 µM (inactive) | 58.5 µM (inactive) | > 100 µM (inactive) | > 100 µM (inactive) | > 100 µM (inactive) | > 100 µM (inactive) | > 100 µM (inactive)
C=CC[C@H]1[C@@H](O[Si](C)(C)C(C)(C)C)[C@H](n2ccc(=O)[nH]c2=O)O[C@@H]1CO[Si](C)(C)C(C)(C)C | 1.76 µM (inactive) | 1.82 µM (inactive) | 1.55 µM (inactive) | 1.72 µM (inactive) | 1.21 µM (inactive) | 2.11 µM (inactive) | 1.56 µM (inactive) | 2.44 µM (inactive) | 2.33 µM (inactive) | 2.32 µM (inactive) | 1.77 µM (inactive) | 1.56 µM (inactive) | 2.23 µM (inactive) | 0.971 µM (active) | 2.14 µM (inactive) | 2 µM (inactive) | 2.45 µM (inactive) | 1.52 µM (inactive) | 2.99 µM (inactive)
COc1cc2oc(-c3ccc(O)cc3)c(OC3OC(C)C(O)C(O)C3O)c(=O)c2c(O)c1OC (stereo not drawn) | > 100 µM (inactive) | 57.8 µM (inactive) | > 100 µM (inactive) | 45.1 µM (inactive) | > 100 µM (inactive) | 16.7 µM (inactive) | > 100 µM (inactive) | > 100 µM (inactive) | 90.8 µM (inactive) | > 100 µM (inactive) | 55.7 µM (inactive) | 51.2 µM (inactive) | > 100 µM (inactive) | 32.9 µM (inactive) | 36.5 µM (inactive) | > 100 µM (inactive) | > 100 µM (inactive) | > 100 µM (inactive) | > 100 µM (inactive)
C=CCn1c(-c2ccc(Cl)cc2Cl)cs/c1=N\c1c(C)n(C)n(-c2ccccc2)c1=O | 15.2 µM (inactive) | 8.11 µM (inactive) | 13 µM (inactive) | 3.04 µM (inactive) | 17.9 µM (inactive) | 7.19 µM (inactive) | 14.5 µM (inactive) | 5.53 µM (inactive) | 10 µM (inactive) | 17 µM (inactive) | 9.14 µM (inactive) | 13.1 µM (inactive) | 14.4 µM (inactive) | 6.11 µM (inactive) | 9.82 µM (inactive) | 10.9 µM (inactive) | 7.05 µM (inactive) | 10.7 µM (inactive) | 15.7 µM (inactive)
